In one series the target is human Nav1.7 (Homo sapiens (Human), UniProt Q15858). As to the kind of experiment: Nav 1.7 in vitro PatchXpress (PX) assay. The series is classed as cell-based.
The target in a further series is human Nav 1.5 (Homo sapiens (Human), UniProt Q14524). As to the kind of experiment: Nav 1.5 IonWorks Quattro (IWQ) in vitro assay. It counts as cell-based.
Where [1] appears, read: in-vitro Nav 1.5 IWQ data, read-out: NAV 1.5 IWQ (IC50).

Read-outs that look alike come from different tables or passages of the source. Some results are limits rather than exact numbers.

Sequence of human Nav1.7 (Q15858 whole entry): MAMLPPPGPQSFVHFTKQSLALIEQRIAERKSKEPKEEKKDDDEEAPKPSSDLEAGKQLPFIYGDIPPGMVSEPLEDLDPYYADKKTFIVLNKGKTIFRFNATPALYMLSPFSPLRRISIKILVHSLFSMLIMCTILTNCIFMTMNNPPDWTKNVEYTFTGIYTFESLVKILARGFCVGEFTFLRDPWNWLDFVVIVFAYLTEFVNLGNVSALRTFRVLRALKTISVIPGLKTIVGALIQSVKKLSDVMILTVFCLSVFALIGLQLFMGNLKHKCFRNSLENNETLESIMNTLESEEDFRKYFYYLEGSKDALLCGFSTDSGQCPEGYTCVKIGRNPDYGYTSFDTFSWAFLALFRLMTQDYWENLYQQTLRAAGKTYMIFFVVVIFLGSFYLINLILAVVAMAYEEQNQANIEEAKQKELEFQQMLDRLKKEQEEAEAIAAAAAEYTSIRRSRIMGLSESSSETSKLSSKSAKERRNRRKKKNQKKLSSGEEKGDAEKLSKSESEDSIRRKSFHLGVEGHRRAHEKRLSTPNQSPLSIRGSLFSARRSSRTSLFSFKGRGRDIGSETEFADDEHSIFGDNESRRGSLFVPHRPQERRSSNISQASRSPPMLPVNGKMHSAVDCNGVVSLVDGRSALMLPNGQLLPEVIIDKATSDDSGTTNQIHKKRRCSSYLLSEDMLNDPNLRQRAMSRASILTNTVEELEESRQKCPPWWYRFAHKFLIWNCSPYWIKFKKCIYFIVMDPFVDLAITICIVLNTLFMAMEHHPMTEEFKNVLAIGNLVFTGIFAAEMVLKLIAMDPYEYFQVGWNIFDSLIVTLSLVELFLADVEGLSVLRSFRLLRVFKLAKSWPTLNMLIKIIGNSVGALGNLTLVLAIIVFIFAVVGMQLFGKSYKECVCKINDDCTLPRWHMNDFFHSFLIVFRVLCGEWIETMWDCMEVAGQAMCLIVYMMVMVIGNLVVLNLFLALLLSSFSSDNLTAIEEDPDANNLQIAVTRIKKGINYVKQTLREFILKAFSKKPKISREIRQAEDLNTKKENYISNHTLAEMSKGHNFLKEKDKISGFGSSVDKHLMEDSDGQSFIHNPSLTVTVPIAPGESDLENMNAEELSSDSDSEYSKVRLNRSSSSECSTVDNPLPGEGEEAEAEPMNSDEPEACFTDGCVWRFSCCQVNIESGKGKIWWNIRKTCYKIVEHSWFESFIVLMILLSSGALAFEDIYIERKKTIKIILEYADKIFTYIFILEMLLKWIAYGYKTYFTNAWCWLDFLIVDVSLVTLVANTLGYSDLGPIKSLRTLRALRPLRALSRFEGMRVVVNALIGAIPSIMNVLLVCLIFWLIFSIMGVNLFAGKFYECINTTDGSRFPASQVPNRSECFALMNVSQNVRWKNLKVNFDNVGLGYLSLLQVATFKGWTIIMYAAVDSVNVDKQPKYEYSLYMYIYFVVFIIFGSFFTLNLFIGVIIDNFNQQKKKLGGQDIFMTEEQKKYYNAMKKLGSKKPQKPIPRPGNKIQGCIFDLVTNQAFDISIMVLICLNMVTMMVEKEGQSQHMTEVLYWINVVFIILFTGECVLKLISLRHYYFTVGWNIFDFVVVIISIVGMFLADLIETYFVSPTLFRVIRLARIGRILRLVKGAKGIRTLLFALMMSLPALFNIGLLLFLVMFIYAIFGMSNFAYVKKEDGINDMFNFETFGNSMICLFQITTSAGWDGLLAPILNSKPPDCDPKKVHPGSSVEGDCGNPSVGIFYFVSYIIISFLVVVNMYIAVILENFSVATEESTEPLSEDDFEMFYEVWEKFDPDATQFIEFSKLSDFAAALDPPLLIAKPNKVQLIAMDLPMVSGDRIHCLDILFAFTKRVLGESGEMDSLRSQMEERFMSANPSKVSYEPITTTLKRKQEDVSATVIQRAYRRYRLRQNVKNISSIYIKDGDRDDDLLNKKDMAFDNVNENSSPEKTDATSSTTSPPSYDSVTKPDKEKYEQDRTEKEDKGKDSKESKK
Sequence of human Nav 1.5 (Q14524 whole entry): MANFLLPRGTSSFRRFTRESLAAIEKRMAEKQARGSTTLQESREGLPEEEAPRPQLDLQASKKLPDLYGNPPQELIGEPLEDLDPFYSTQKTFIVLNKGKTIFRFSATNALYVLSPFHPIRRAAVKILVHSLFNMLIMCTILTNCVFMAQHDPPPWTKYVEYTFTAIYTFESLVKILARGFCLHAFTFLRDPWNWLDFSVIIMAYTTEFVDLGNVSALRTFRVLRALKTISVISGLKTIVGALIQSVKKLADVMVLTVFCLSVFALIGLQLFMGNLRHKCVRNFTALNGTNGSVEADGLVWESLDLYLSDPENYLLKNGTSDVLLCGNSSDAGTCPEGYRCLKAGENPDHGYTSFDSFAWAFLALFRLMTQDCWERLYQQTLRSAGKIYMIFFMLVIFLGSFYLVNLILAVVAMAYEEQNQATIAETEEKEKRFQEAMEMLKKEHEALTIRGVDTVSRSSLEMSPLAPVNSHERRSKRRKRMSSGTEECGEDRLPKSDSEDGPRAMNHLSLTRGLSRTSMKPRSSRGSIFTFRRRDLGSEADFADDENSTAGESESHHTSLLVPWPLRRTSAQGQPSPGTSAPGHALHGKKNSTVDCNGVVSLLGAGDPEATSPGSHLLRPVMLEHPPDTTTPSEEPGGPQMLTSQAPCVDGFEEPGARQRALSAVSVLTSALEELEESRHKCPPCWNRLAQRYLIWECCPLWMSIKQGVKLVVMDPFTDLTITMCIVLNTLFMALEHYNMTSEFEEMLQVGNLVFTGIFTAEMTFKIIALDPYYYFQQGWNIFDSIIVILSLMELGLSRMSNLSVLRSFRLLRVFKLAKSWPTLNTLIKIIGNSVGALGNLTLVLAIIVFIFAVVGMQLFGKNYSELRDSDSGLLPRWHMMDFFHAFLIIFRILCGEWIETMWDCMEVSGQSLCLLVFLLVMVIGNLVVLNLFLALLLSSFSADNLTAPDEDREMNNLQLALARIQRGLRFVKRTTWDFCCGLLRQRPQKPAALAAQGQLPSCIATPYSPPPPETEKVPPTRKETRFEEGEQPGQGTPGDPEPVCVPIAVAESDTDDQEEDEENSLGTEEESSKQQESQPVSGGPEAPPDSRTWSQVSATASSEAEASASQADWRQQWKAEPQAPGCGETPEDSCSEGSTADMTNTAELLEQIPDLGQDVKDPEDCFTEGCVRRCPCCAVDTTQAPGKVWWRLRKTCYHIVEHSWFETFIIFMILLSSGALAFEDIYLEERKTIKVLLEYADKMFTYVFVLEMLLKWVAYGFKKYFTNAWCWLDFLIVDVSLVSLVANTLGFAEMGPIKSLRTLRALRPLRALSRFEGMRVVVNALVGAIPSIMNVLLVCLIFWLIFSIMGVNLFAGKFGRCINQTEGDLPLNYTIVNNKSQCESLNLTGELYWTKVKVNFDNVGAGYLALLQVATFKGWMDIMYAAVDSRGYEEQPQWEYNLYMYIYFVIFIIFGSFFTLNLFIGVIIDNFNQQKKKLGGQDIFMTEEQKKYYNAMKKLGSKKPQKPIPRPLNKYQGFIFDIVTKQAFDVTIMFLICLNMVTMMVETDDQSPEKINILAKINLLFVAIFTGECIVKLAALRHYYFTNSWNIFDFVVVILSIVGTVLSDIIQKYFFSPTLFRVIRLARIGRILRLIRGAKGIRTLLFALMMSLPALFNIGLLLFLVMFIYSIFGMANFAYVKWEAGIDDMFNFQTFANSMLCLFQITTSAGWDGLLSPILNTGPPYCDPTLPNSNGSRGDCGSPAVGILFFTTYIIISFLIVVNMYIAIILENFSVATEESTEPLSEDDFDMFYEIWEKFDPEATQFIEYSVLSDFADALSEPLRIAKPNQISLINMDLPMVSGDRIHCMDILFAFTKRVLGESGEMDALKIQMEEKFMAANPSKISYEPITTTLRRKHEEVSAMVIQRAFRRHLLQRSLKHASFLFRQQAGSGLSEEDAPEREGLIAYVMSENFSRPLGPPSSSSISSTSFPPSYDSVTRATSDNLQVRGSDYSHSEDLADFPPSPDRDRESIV
Protocol for human Nav 1.5: Nav 1.7 or Nav 1.5 Ion Works Quattro (IWQ) In Vitro Assay
HEK 293 Cells stably transfected with either human Nay 1.7 or human Nay 1.5 were recorded in population patch-clamp mode with the IonWorks® Quattro automated electrophysiology system in accordance with the manufacturer's specifications (Molecular Devices, LLC, Sunnyvale, Calif.). Sodium channel currents were measured in response to a train of depolarizations that induced successively greater inactivation.
Cells were held at −110 mV for three seconds (Nav 1.7) or half a second (Nav 1.5) from a holding voltage of −15 mV, then put through a series of 26 pulses of 150 msec duration to −20 mV at a frequency of 5 Hz. Cells were then left unclamped for a period of 3 to 8 minutes while a single concentration of test compound was added. Cells were then reclamped and put through the same voltage protocol. Current at the end of the 26th pulse to −20 mV was subtracted from the peak current evoked by the 26th pulse to −20 mV to correct for leak current. Percent block was calculated for each concentration in duplicate, and IC50 curves were fitted to percent block as a function of concentration.

Turning to `Cc1cc(C(=O)NS(C)(=O)=O)c(F)cc1-c1cnc(Oc2cc(Cl)c(Cl)cc2Cl)c(Cl)c1` [Example 667, 4-(5-chloro-6-(2,4,5-trichlorophenoxy)-3-pyridinyl)-2-fluoro-5-methyl-N-(methylsulfonyl)benzamide], the IC50 against human Nav1.7 turned out to be 50.5 nM; on human Nav 1.5 (read-out: NAV 1.5 IWQ IC50) it was 7450 nM.
For `Cc1cc(C(=O)NS(C)(=O)=O)c(F)cc1-c1cnc(Oc2cc(F)c(Cl)c(F)c2)c(Cl)c1` [Example 668, 4-(5-chloro-6-(4-chloro-3,5-difluorophenoxy)-3-pyridinyl)-2-fluoro-5-methyl-N-(methylsulfonyl)benzamide] the same measures were 97 nM and > 10000 nM.
Turning to `Cc1cc(C(=O)NS(C)(=O)=O)c(F)cc1-c1cnc(Oc2c(C)cc(Cl)cc2C)c(Cl)c1` [Example 669, 4-(5-chloro-6-(4-chloro-2,6-dimethylphenoxy)-3-pyridinyl)-2-fluoro-5-methyl-N-(methylsulfonyl)benzamide], the IC50 is 66 nM against human Nav1.7 and 3610 nM on human Nav 1.5 (read-out: NAV 1.5 IWQ IC50).
For `Cc1cc(C(=O)NS(C)(=O)=O)c(F)cc1-c1cnc(Oc2c(Cl)ccc(C)c2F)c(Cl)c1` [Example 670, 4-(5-chloro-6-(6-chloro-2-fluoro-3-methylphenoxy)-3-pyridinyl)-2-fluoro-5-methyl-N-(methylsulfonyl)benzamide] the same measures were 83.6 nM and > 10000 nM.
For `Cc1cc(C(=O)NS(C)(=O)=O)c(F)cc1-c1cnc(Oc2ccc(F)c3c2CCC3)c(Cl)c1` [Example 672, 4-(5-chloro-6-((7-fluoro-2,3-dihydro-1H-inden-4-yl)oxy)-3-pyridinyl)-2-fluoro-5-methyl-N-(methylsulfonyl)benzamide] the same measures were 67.5 nM and > 10000 nM.
For `Cc1cc(C(=O)NS(C)(=O)=O)c(F)cc1-c1cnc(O[C@@H](C)c2cc(Cl)ccc2Cl)c(Cl)c1` [Example 674, 4-(5-chloro-6-((1S)-1-(2,5-dichlorophenyl)ethoxy)-3-pyridinyl)-2-fluoro-5-methyl-N-(methylsulfonyl)benzamide], the IC50 against human Nav1.7 stood at 83.4 nM; at human Nav 1.5 (read-out: NAV 1.5 IWQ IC50), 4860 nM.
For `CC[C@@H](Oc1ncc(-c2cc(F)c(C(=O)NS(C)(=O)=O)cc2C)cc1Cl)c1ccc(F)c(C)c1` [Example 675, 4-(5-chloro-6-(((1R)-1-(4-fluoro-3-methylphenyl)propyl)oxy)-3-pyridinyl)-2-fluoro-5-methyl-N-(methylsulfonyl)benzamide] the same measures were 54 nM and > 10000 nM.
For `Cc1cc(Cl)ccc1COc1ncc(-c2cc(F)c(C(=O)NS(C)(=O)=O)cc2C)cc1Cl` [Example 681, 4-(5-chloro-6-((4-chloro-2-methylbenzyl)oxy)-3-pyridinyl)-2-fluoro-5-methyl-N-(methylsulfonyl)benzamide] the same measures were 98.6 nM and > 4900 nM.
For `COc1cc(C(=O)NS(C)(=O)=O)ccc1-c1cnc(Oc2c(C)cc(Cl)cc2Cl)c(C#N)c1` [Example 689, 4-(5-cyano-6-(2,4-dichloro-6-methylphenoxy)-3-pyridinyl)-3-methoxy-N-(methylsulfonyl)benzamide] the same measures were 28.4 nM and 1000 nM.
Turning to `COc1cc(C(=O)NS(C)(=O)=O)c(F)cc1-c1cnc(Oc2cc(Cl)cc(Cl)c2)c(Cl)c1` [Example 695, 4-(5-chloro-6-(3,5-dichlorophenoxy)-3-pyridinyl)-2-fluoro-5-methoxy-N-(methylsulfonyl)benzamide], the IC50 against human Nav1.7 is 52.4 nM; at human Nav 1.5 (read-out: NAV 1.5 IWQ IC50), > 3000 nM.
For `COc1cc(C(=O)NS(C)(=O)=O)c(F)cc1-c1cnc(O[C@H](C)c2ccccc2)c(Cl)c1` [Example 696, 4-(5-chloro-6-((1R)-1-phenylethoxy)-3-pyridinyl)-2-fluoro-5-methoxy-N-(methylsulfonyl)benzamide, 4-(5-chloro-6-((1S)-1-phenylethoxy)-3-pyridinyl)-2-fluoro-5-methoxy-N-(methylsulfonyl)benzamide] the same measures were 93 nM and > 3000 nM.
In the case of `COc1cc(C(=O)NS(C)(=O)=O)c(F)cc1-c1cnc(Oc2ccc(C)c(F)c2)c(Cl)c1` [Example 698, 4-(5-chloro-6-(3-fluoro-4-methylphenoxy)-3-pyridinyl)-2-fluoro-5-methoxy-N-(methylsulfonyl)benzamide], the IC50 against human Nav1.7 was determined as 59 nM; at human Nav 1.5 (read-out: NAV 1.5 IWQ IC50), 6050 nM.
Regarding `COc1cc(C(=O)NS(C)(=O)=O)c(F)cc1-c1cnc(Oc2cc(Cl)ccc2C)c(Cl)c1` [Example 699, 4-(5-chloro-6-(5-chloro-2-methylphenoxy)-3-pyridinyl)-2-fluoro-5-methoxy-N-(methylsulfonyl)benzamide], the results for the IC50 on human Nav1.7 and on human Nav 1.5 (read-out: NAV 1.5 IWQ IC50) were 55.1 nM and > 3000 nM, respectively.
Consider `COc1cc(C(=O)NS(C)(=O)=O)c(F)cc1-c1cnc(Oc2cc(F)cc(F)c2F)c(Cl)c1` [Example 700, 4-(5-chloro-6-(2,3,5-trifluorophenoxy)-3-pyridinyl)-2-fluoro-5-methoxy-N-(methylsulfonyl)benzamide], for which the IC50 against human Nav1.7 was 91.3 nM; on human Nav 1.5 (read-out: NAV 1.5 IWQ IC50), > 3000 nM.
On to `COc1cc(C(=O)NS(C)(=O)=O)c(F)cc1-c1cnc(Oc2ccc(F)c(F)c2F)c(Cl)c1` [Example 701, 4-(5-chloro-6-(2,3,4-trifluorophenoxy)-3-pyridinyl)-2-fluoro-5-methoxy-N-(methylsulfonyl)benzamide], for which the IC50 at human Nav1.7 was 70.6 nM; at human Nav 1.5 (read-out: NAV 1.5 IWQ IC50), > 3000 nM.
For `COc1cc(C(=O)NS(C)(=O)=O)c(F)cc1-c1cnc(O[C@H]2C[C@H]3CC[C@@H]2C3)c(Cl)c1` [Example 703, 4-(6-((1R,2S,4S)-bicyclo[2.2.1]hept-2-yloxy)-5-chloro-3-pyridinyl)-2-fluoro-5-methoxy-N-(methylsulfonyl)benzamide] the same measures were 78.2 nM and > 3000 nM.
As for `COc1cc(C(=O)NS(C)(=O)=O)c(F)cc1-c1cnc(OCc2nc3ccccc3s2)c(Cl)c1` [Example 708, 4-(6-(1,3-benzothiazol-2-ylmethoxy)-5-chloro-3-pyridinyl)-2-fluoro-5-methoxy-N-(methylsulfonyl)benzamide], the IC50 against human Nav1.7 (in-vitro Nav 1.7 PX data) was 32.6 nM; on human Nav 1.5 (setting [1]), > 3000 nM.
`COc1cc(C(=O)NS(C)(=O)=O)c(F)cc1-c1cnc(OCc2nc3ccccc3s2)c(Cl)c1` [Example 709, 4-(6-(1,3-benzothiazol-2-ylmethoxy)-5-chloro-3-pyridinyl)-2-fluoro-5-methoxy-N-(methylsulfonyl)benzamide]: the IC50 against human Nav1.7 (in-vitro Nav 1.7 PX data) was 34.9 nM; at human Nav 1.5 (setting [1]) it was > 3000 nM.
On to `Cc1cc(C(=O)NS(C)(=O)=O)c(F)cc1-c1cnc(O[C@@H](C)c2nc3ccccc3s2)c(Cl)c1` [Example 710, 4-(6-((1S)-1-(1,3-benzothiazol-2-yl)ethoxy)-5-chloro-3-pyridinyl)-2-fluoro-5-methyl-N-(methylsulfonyl)benzamide], for which the IC50 on human Nav1.7 (in-vitro Nav 1.7 PX data) is 87.3 nM; at human Nav 1.5 (setting [1]) it was > 3000 nM.
With `CNS(=O)(=O)NC(=O)c1ccc(-c2cnc(Oc3cc(Cl)cc(Cl)c3)c(Cl)c2)c(OC)c1` [Example 772, 4-(5-Chloro-6-(3,5-Dichlorophenoxy)Pyridin-3-yl)-3-Methoxy-N—(N-Methylsulfamoyl)Benzamide], the figures for the IC50 on human Nav1.7 (in-vitro Nav 1.7 PX data) and at human Nav 1.5 (setting [1]) were 80.7 nM and > 3000 nM, respectively.
For `COc1cc(C(=O)NS(C)(=O)=O)ccc1-c1cnc(COc2ccc(Cl)c(Cl)c2)c(Cl)c1` [Example 774, 4-(5-Chloro-6-((3,4-Dichlorophenoxy)-Methyl)Pyridin-3-yl)-3-Methoxy-N-(Methylsulfonyl)Benzamide] the same measures were 80.1 nM and > 3000 nM.
For the molecule `Cc1cc(C(=O)NS(C)(=O)=O)ccc1-c1cnc(Oc2c(C)cc(Cl)cc2Cl)c(Cl)c1` [Example 775, 4-(5-Chloro-6-(2,4-Dichloro-6-Methylphenoxy)-3-Pyridinyl)-3-Methyl-N-(Methyl Sulfonyl)Benzamide], the IC50 on human Nav1.7 (in-vitro Nav 1.7 PX data) was 78.2 nM; at human Nav 1.5 (setting [1]), > 4900 nM.
Regarding `CCS(=O)(=O)NC(=O)c1ccc(-c2cnc(Oc3c(C)cc(Cl)cc3Cl)c(Cl)c2)c(OC)c1` [Example 788, 4-(5-chloro-6-(2,4-dichloro-6-methylphenoxy)-3-pyridinyl)-N-(ethylsulfonyl)-3-methoxybenzamide], the IC50 against human Nav1.7 (in-vitro Nav 1.7 PX data) turned out to be 24.8 nM; on human Nav 1.5 (setting [1]), 1380 nM.
For `CCCS(=O)(=O)NC(=O)c1cc(C)c(-c2cnc(OC3CCC3)c(Cl)c2)cc1F` [Example 796, 4-(5-chloro-6-(cyclobutyloxy)-3-pyridinyl)-2-fluoro-5-methyl-N-(propylsulfonyl)benzamide] the same measures were 110 nM and 9310 nM.
For `Cc1cc(C(=O)NS(=O)(=O)c2nccs2)c(F)cc1-c1cnc(Oc2c(C)cc(Cl)cc2Cl)c(Cl)c1` [Example 799, 4-(5-chloro-6-(2,4-dichloro-6-methylphenoxy)-3-pyridinyl)-2-fluoro-5-methyl-N-(1,3-thiazol-2-ylsulfonyl)benzamide] the same measures were 23.1 nM and 669 nM.
For `CCS(=O)(=O)NC(=O)c1cc(C)c(-c2cnc(Oc3c(C)cc(Cl)cc3Cl)c(Cl)c2)cc1F` [Example 800, 4-(5-chloro-6-(2,4-dichloro-6-methylphenoxy)-3-pyridinyl)-N-(ethylsulfonyl)-2-fluoro-5-methylbenzamide] the same measures were 96 nM and 1250 nM.
Regarding `Cc1cc(C(=O)NS(=O)(=O)C2CC2)c(F)cc1-c1cnc(Oc2c(C)cc(Cl)cc2Cl)c(Cl)c1` [Example 801, 4-(5-chloro-6-(2,4-dichloro-6-methylphenoxy)-3-pyridinyl)-N-(cyclopropylsulfonyl)-2-fluoro-5-methylbenzamide], the results for the IC50 on human Nav1.7 (in-vitro Nav 1.7 PX data) and on human Nav 1.5 (setting [1]) were 56.2 nM and 485 nM, respectively.
For `COc1cc(C(=O)NS(C)(=O)=O)ccc1-c1cc(Cl)nc(Oc2cc(Cl)cc(Cl)c2)c1` [Example 803, 4-(2-chloro-6-(3,5-dichlorophenoxy)-4-pyridinyl)-3-methoxy-N-(methylsulfonyl)benzamide] the same measures were 91.6 nM and > 3000 nM.
